Assay results: paper PMC4040390 (Angewandte Chemie (International ed. in English), 2009)

Legend:
Assay type in all cases: cell-based
Sh-IR = conditions: isomer that blocks Sh-IR
[1] = tested on: voltage-gated Ca2+ channels expressed in GH3 cells; test: Photosensitization of voltage-gated Ca2+ channels expressed in GH3 cells
[2] = tested on: voltage-gated Na+ channels expressed in GH3 cells; test: Photosensitization of voltage-gated Na+ channels expressed in GH3 cells
[3] = tested on: endogenous K+ channels in dissociated hippocampal neurons; conditions: 20 μM extracellular treatment, Iss at +40 mV, n = 10

| Compound | Active Isomer (Sh-IR) | photosensitization of voltage-gated Ca2+ channels [1] | photosensitization of voltage-gated Na+ channels [2] | % of Iss blocked (380 vs 500 nm) [3] |
| --- | --- | --- | --- | --- |
| Propyl-Azo-QA [Compound 10] | preferentially blocks in the cis form |  |  |  |
| CC[N+](CC)(CC)CC(=O)Nc1ccc(/N=N/c2ccc(NC(=O)c3ccccc3)cc2)cc1 [Compound 7, Benzoyl-Azo-QA] | trans | did not photosensitize | did not photosensitize | 35.5% ± 4.7 |
| C=CC(=O)Nc1ccc(N=Nc2ccc(NC(=O)C[N+](CC)(CC)CC)cc2)cc1 [Compound 1] | trans |  |  |  |
